# From US20230085307A1, “PYRIDAZINONE COMPOUND AND HERBICIDE” (NISSAN CHEMICAL CORPORATION, priority 2019, published 2023)
# Legend:
# late watergrass = assay: Test Example 1: herbicidal activity, application before weed generation under submerged conditions (Table 16, symbol A); type: in vivo, late watergrass (Echinochloa oryzicola); conditions: amount of applied herbicide 320 g/ha
# How it was run: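 Alluvial soil was flooded to 4 cm depth, weed seeds were sown mixed and 2.5-leaf rice seedlings were transplanted. On sowing day, the compound's emulsion, diluted in water to a set dose, was applied to the water surface. Plants grew at 25–30 °C and were scored 0–5 after three weeks.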
# Japanese bulrush = assay: Test Example 2: herbicidal activity, application during weed generation under submerged conditions (Table 17, symbol B); type: in vivo, Japanese bulrush (Schoenoplectus juncoides); conditions: AAH 320 g/ha; application during weed generation, submerged conditions
# How it was run: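 Herbicide emulsion, diluted with water to the chosen amount, is applied onto 4 cm floodwater over alluvial soil where the weeds were co-sown and raised at 25–30° C. Application timing: 1–2 leaves. Assessment: three weeks afterwards.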
# Chinese sprangletop = assay: Test Example 3: herbicidal effect by foliage application, Wagner pot (Table 18, symbol D); type: in vivo, chinese sprangletop (Leptochloa chinensis); conditions: 320 g/ha
# How it was run: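 Plants were sown in alluvial soil held under 0.1–0.5 cm standing water and grown 14 days in a greenhouse at 25–30 °C. An emulsifiable formulation, water-diluted to the set dose, was then sprayed onto the foliage, and effects were scored three weeks later using previously defined criteria.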
# green foxtail [1] = assay: Test Example 4: herbicidal effect by soil treatment (Table 19, symbol G); type: in vivo, green foxtail (Setaria viridis); conditions: amount of applied herbicide 320 g/ha
# How it was run: (§1)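 Herbicidal effect was rated 3 weeks after treatment, using the scoring criteria of an earlier test. The compound, formulated as an emulsion and diluted in water to a set herbicide amount, had been sprayed uniformly on soil over freshly sown seeds. Growth took place in a greenhouse at 25° C. to 30° C.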
# barnyard grass = assay: Test Example 4: herbicidal effect by soil treatment (Table 19, symbol H); type: in vivo, barnyard grass (Echinochloa crus-galli); conditions: amount of applied herbicide 320 g/ha
# How it was run: as §1
# wild oat [2] = assay: Test Example 4: herbicidal effect by soil treatment (Table 19, symbol I); type: in vivo, wild oat (Avena fatua); conditions: amount of applied herbicide 320 g/ha
# How it was run: as §1
# Italian ryegrass = assay: Test Example 4: herbicidal effect by soil treatment (Table 19, symbol K); type: in vivo, Italian ryegrass (Lolium multiflorum); conditions: amount of applied herbicide 320 g/ha
# How it was run: as §1
# windgrass [3] = assay: Test Example 4: herbicidal effect by soil treatment (Table 19, symbol L); type: in vivo, windgrass (Apera spica-venti); conditions: amount of applied herbicide 320 g/ha
# How it was run: as §1
# lambsquarters [4] = assay: Test Example 4: herbicidal effect by soil treatment (Table 19, symbol O); type: in vivo, lambsquarters (Chenopodium album); conditions: amount of applied herbicide 320 g/ha
# How it was run: as §1
# chickweed = assay: Test Example 4: herbicidal effect by soil treatment (Table 19, symbol P); type: in vivo, common chickweed (Stellaria media); conditions: amount of applied herbicide 320 g/ha
# How it was run: as §1
# green foxtail [5] = assay: Test Example 5: herbicidal effect by foliage application, plastic box (Table 20, symbol G); type: in vivo, green foxtail (Setaria viridis); conditions: 320 g/ha, foliage application after 14-day growth, evaluated three weeks after application
# How it was run: (§2)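 Foliar spray test: emulsion formulation diluted in water to a set application rate, sprayed onto 14-day-old plants raised in diluvial soil at 25° C to 30° C under glass. Both herbicidal effect and crop effect rated visually three weeks later.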
# wild oat [6] = assay: Test Example 5: herbicidal effect by foliage application, plastic box (Table 20, symbol I); type: in vivo, wild oat (Avena fatua); conditions: 320 g/ha, foliage application after 14-day growth, evaluated three weeks after application
# How it was run: as §2
# windgrass [7] = assay: Test Example 5: herbicidal effect by foliage application, plastic box (Table 20, symbol L); type: in vivo, windgrass (Apera spica-venti); conditions: 320 g/ha, foliage application after 14-day growth, evaluated three weeks after application
# How it was run: as §2
# velvetleaf = assay: Test Example 5: herbicidal effect by foliage application, plastic box (Table 20, symbol M); type: in vivo, velvetleaf (Abutilon theophrasti); conditions: 320 g/ha, foliage application after 14-day growth, evaluated three weeks after application
# How it was run: as §2
# redroot pigweed = assay: Test Example 5: herbicidal effect by foliage application, plastic box (Table 20, symbol N); type: in vivo, redroot pigweed (Amaranthus retroflexus); conditions: 320 g/ha, foliage application after 14-day growth, evaluated three weeks after application
# How it was run: as §2
# lambsquarters [8] = assay: Test Example 5: herbicidal effect by foliage application, plastic box (Table 20, symbol O); type: in vivo, lambsquarters (Chenopodium album); conditions: 320 g/ha, foliage application after 14-day growth, evaluated three weeks after application
# How it was run: as §2
# persian speedwell = assay: Test Example 5: herbicidal effect by foliage application, plastic box (Table 20, symbol R); type: in vivo, Persian speedwell (Veronica persica); conditions: 320 g/ha, foliage application after 14-day growth, evaluated three weeks after application
# How it was run: as §2
Structure (SMILES),"Herbicidal effect, A: late watergrass (late watergrass)","herbicidal effect rating, B: Japanese bulrush (Japanese bulrush)",herbicidal effect on Chinese sprangletop (D) (Chinese sprangletop),"Herbicidal effect by soil treatment, G: green foxtail (green foxtail [1])","Herbicidal effect by soil treatment, H: barnyard grass (barnyard grass)","Herbicidal effect by soil treatment, I: wild oat (wild oat [2])","Herbicidal effect by soil treatment, K: Italian ryegrass (Italian ryegrass)","Herbicidal effect by soil treatment, L: windgrass (windgrass [3])","Herbicidal effect by soil treatment, O: lambsquarters (lambsquarters [4])","Herbicidal effect by soil treatment, P: chickweed (chickweed)",herbicidal effect on G: green foxtail (evaluation grade 0-5) (green foxtail [5]),herbicidal effect on I: wild oat (evaluation grade 0-5) (wild oat [6]),herbicidal effect on L: windgrass (evaluation grade 0-5) (windgrass [7]),herbicidal effect on M: velvetleaf (evaluation grade 0-5) (velvetleaf),herbicidal effect on N: redroot pigweed (evaluation grade 0-5) (redroot pigweed),herbicidal effect on O: lambsquarters (evaluation grade 0-5) (lambsquarters [8]),herbicidal effect on R: persian speedwell (evaluation grade 0-5) (persian speedwell)
COc1ccccc1-c1sc2cc(SC)ccc2c1-c1c(O)c(C)nn(C)c1=O [3-163],3 (Herbicidal rate of 40% or more and less than 70%),0 (Herbicidal rate of 5% or less (almost no effect)),5 (Herbicidal rate of 90% or more (almost completely withered)),3 (Herbicidal rate of 40% or more and less than 70%),5 (Herbicidal rate of 90% or more (almost completely withered)),0 (Herbicidal rate of 5% or less (almost no effect)),3 (Herbicidal rate of 40% or more and less than 70%),3 (Herbicidal rate of 40% or more and less than 70%),3 (Herbicidal rate of 40% or more and less than 70%),4 (Herbicidal rate of 70% or more and less than 90%),5 (Herbicidal rate of 90% or more (almost completely withered)),5 (Herbicidal rate of 90% or more (almost completely withered)),5 (Herbicidal rate of 90% or more (almost completely withered)),5 (Herbicidal rate of 90% or more (almost completely withered)),5 (Herbicidal rate of 90% or more (almost completely withered)),4 (Herbicidal rate of 70% or more and less than 90%),5 (Herbicidal rate of 90% or more (almost completely withered))
CCCOc1ccc(-c2sc3c(F)cccc3c2-c2c(OC(=O)CCC)c(C)nn(C)c2=O)cc1 [4-010],3 (Herbicidal rate of 40% or more and less than 70%),0 (Herbicidal rate of 5% or less (almost no effect)),4 (Herbicidal rate of 70% or more and less than 90%),0 (Herbicidal rate of 5% or less (almost no effect)),0 (Herbicidal rate of 5% or less (almost no effect)),0 (Herbicidal rate of 5% or less (almost no effect)),2 (Herbicidal rate of 20% or more and less than 40%),0 (Herbicidal rate of 5% or less (almost no effect)),3 (Herbicidal rate of 40% or more and less than 70%),3 (Herbicidal rate of 40% or more and less than 70%),3 (Herbicidal rate of 40% or more and less than 70%),0 (Herbicidal rate of 5% or less (almost no effect)),0 (Herbicidal rate of 5% or less (almost no effect)),3 (Herbicidal rate of 40% or more and less than 70%),5 (Herbicidal rate of 90% or more (almost completely withered)),5 (Herbicidal rate of 90% or more (almost completely withered)),5 (Herbicidal rate of 90% or more (almost completely withered))
CCCC(=O)Oc1c(C)nn(C)c(=O)c1-c1c(-c2ccc(OC)cc2)sc2c(Cl)cccc12 [4-024],3 (Herbicidal rate of 40% or more and less than 70%),0 (Herbicidal rate of 5% or less (almost no effect)),3 (Herbicidal rate of 40% or more and less than 70%),2 (Herbicidal rate of 20% or more and less than 40%),0 (Herbicidal rate of 5% or less (almost no effect)),0 (Herbicidal rate of 5% or less (almost no effect)),0 (Herbicidal rate of 5% or less (almost no effect)),0 (Herbicidal rate of 5% or less (almost no effect)),0 (Herbicidal rate of 5% or less (almost no effect)),0 (Herbicidal rate of 5% or less (almost no effect)),4 (Herbicidal rate of 70% or more and less than 90%),0 (Herbicidal rate of 5% or less (almost no effect)),4 (Herbicidal rate of 70% or more and less than 90%),4 (Herbicidal rate of 70% or more and less than 90%),5 (Herbicidal rate of 90% or more (almost completely withered)),3 (Herbicidal rate of 40% or more and less than 70%),4 (Herbicidal rate of 70% or more and less than 90%)
CCCC(=O)Oc1c(C)nn(C)c(=O)c1-c1c(-c2ccccc2OCC)sc2c(Cl)cccc12 [4-026],5 (Herbicidal rate of 90% or more (almost completely withered)),3 (Herbicidal rate of 40% or more and less than 70%),5 (Herbicidal rate of 90% or more (almost completely withered)),3 (Herbicidal rate of 40% or more and less than 70%),3 (Herbicidal rate of 40% or more and less than 70%),0 (Herbicidal rate of 5% or less (almost no effect)),0 (Herbicidal rate of 5% or less (almost no effect)),0 (Herbicidal rate of 5% or less (almost no effect)),0 (Herbicidal rate of 5% or less (almost no effect)),1 (Herbicidal rate of 5% or more and less than 20%),5 (Herbicidal rate of 90% or more (almost completely withered)),0 (Herbicidal rate of 5% or less (almost no effect)),5 (Herbicidal rate of 90% or more (almost completely withered)),5 (Herbicidal rate of 90% or more (almost completely withered)),5 (Herbicidal rate of 90% or more (almost completely withered)),3 (Herbicidal rate of 40% or more and less than 70%),4 (Herbicidal rate of 70% or more and less than 90%)
